Experimental findings from US9035022B2, “Cyclic CRF antagonist peptides” (Salk Institute for Biological Studies, priority 2010, dated 2015) are described below.

The experiment has as its system adrenalectomized (ADX) rats. The experiment is described as follows: In vivo assay of ACTH secretion in adrenalectomized (ADX) rats. Set-up: species or system rat.

Description: The in vivo assays which are employed to test these CRF antagonists use adrenalectomized (ADX) rats. […] Their diet is supplemented with 0.9% NaCl in the drinking water and with oranges. Two days prior to the experiments, the animals are equipped with jugular cannulae, as described in C. […] On the morning of the experiments, the i.v. cannulae are connected to a line filled with heparinized saline, and the rats are placed in individual buckets and left undisturbed for 2 hours. For the experiment, a first blood sample of 0.3 mL is withdrawn, the test solution is injected (in an 0.2-0.5 mL volume), and subsequent blood samples are obtained at about 15, 45, 90 and 120 minutes. The blood samples are centrifuged, and the separated plasma are kept frozen (−20° C.) until assayed for ACTH values. Plasma ACTH levels are measured as described in C.

For the substance [Aib^19,24,32, Orn^25]-Astressin B [V], for the setting “general procedure of Example I”, the “inhibition of secretion of ACTH and corticosterone” value is “inhibits the secretion of ACTH and corticosterone”.

On to “[Tyr-Asp^1, Aib^19,24,32]-Astressin B [IV]”, for which the “inhibition of secretion of ACTH and β-END-LI” value (administration of the peptide) was “inhibits the secretion of ACTH and β-END-LI”.
